Test results taken from US7371555B2, “Polypeptides having α-H-α-amino acid amide racemase activity and nucleic acids encoding the same” (DSM IP Assets B.V., priority 2002, dated 2008).

Experiments:
[1] = test system: CFE from E. coli DH10B/pOa(1)PLV49B10 combined with the L-aminopeptidase from Pseudomonas putida ATCC 12633; assay: Racemase activity test with DL-2-amino-5-[1,3]dioxolan-2-yl-pentanoic acid amide, CFE combined with L-aminopeptidase (Example 12); format: biochemical, Ochrobactrum anthropi IA; Pseudomonas putida ATCC 12633
Experimental: (§1) A reaction mixture of 10 ml (total volume including enzyme preparations) was prepared containing 50 mM HEPES-NaOH, pH 8.0, 20 μM pyridoxal-5-phosphate, 0.4 mg/ml BSA, 1 mM dithiothreitol, and 75 mM of DL-2-aminobutyric acid amide. Reaction was started by the addition of 0.4 ml of the thawed CFE of E. coli DH10B/pOa(1)PLV49B10 and 0.17 ml of a solution containing L-aminopeptidase from P. putida ATCC 12633. The reaction mixture was incubated at 37° C. for 18 h. At certain time intervals samples of 1 ml were taken and transferred to vials containing 1 ml of MeOH to stop the reaction. Analysis of these samples to determine the concentrations L- and D-2-aminobutyric acid and L- and D-2-aminobutyric acid amide was done by HPLC according to the protocol of Example 11.
In a very similar set-up, the combined activity of the α-H-α-amino acid amide racemase from O. anthropi IA and the L-aminopeptidase from P. putida ATCC 12633 was determined towards the more complex substrate DL-2-amino-5-[1,3]dioxolan-2-yl-pentanoic acid amide. The molecular structure of this amide can be found in the substrate table in Example 8. In this experiment 1 ml of the thawed CFE from E. coli DH10B/pOa(1)PLV49B10 was used together with 1 ml of a solution containing L-aminopeptidase from P. putida ATCC 12633. Reaction proceeded for 120 hours. Analysis of these samples to determine the concentrations L- and D-2-amino-5-[1,3]dioxolan-2-yl-pentanoic acid and L- and D-2-amino-5-[1,3]dioxolan-2-yl-pentanoic acid amide was done by HPLC according to the following protocol. • column: Crownether Cr(−) (150 mm×4.0 mm ID) • eluent: Perchloric acid in water, pH=1.0 • flow: 1.2 ml/min. • column temp.: 18° C. • inj. volume: 20 μl • detection: fluorescence detection after post-column reaction with o-phthalaldehyde and 2-mercaptoethanol in 0.4 M borate buffer. (wavelength ex=338 nm and em>420 nm)

[2] = test system: CFE from E. coli DH10B/pOa(1)PLV49B10 containing the α-H-α-amino acid amide racemase from O. anthropi IA; assay: Racemase activity test with DL-2-aminobutyric acid amide and CFE from E. coli DH10B/pOa(1)PLV49B10 (Example 10); format: biochemical, Ochrobactrum anthropi IA; settings: Strain A; for Conversion: conversion to the L-acid
Experimental: Also in this case, E. coli TOP10/pBAD/Myc-HisC was treated in exactly the same way to serve as negative control.
To determine the activity of the CFE from E. coli DH10B/pOa(1)PLV49B10 and E. coli TOP10/pBAD/Myc-HisC, reaction mixtures of 10 ml each were prepared containing 50 mM HEPES-NaOH, pH 8.0, 20 μM pyridoxal-5-phosphate, 0.4 mg/ml BSA, 1 mM dithiothreitol, and 75 mM of DL-2-aminobutyric acid amide. Reactions were started by the addition of 1 ml of the thawed CFE of E. coli DH10B/pOa(1)PLV49B10 or E. coli TOP10/pBAD/Myc-HisC (blank) and were incubated at 37° C. for 21.5 h. At regular time intervals samples of 1 ml were taken and transferred to vials containing 1 ml of MeOH to stop the reaction. Analysis of these samples to determine the concentrations L- and D-2-aminobutyric acid and L- and D-2-aminobutyric acid amide was done by HPLC according to the following protocol. • column: Sumichiral OA5000 from Sumika (150×4.6 mm I.D., 5μ)+guard column • eluent: 4 mM CuSO4 in water • flow: 1 ml/min. • column temp.: 10° C. • inj. volume: 6 μl • detection: fluorescence detection after post-column reaction with o-phthalaldehyde and 2-mercaptoethanol in 0.4 M borate buffer with addition of EDTA (wavelength ex=338 nm and em>420 nm)

[3] = test system: CFE from E. coli DH10B/pOa(1)PLV49B10 combined with the L-aminopeptidase from Pseudomonas putida ATCC 12633; assay: Racemase activity test with DL-2-aminobutyric acid amide, CFE combined with L-aminopeptidase (Example 11); format: biochemical, Ochrobactrum anthropi IA; Pseudomonas putida ATCC 12633
Experimental: In this experiment, the E. coli DH10B/pOa(1)PLV49B10 CFE from Example 11 was used. It was combined with a preparation containing the L-aminopeptidase from P. putida ATCC 12633. This is the same L-enantioselective enzyme as was used as L-aminopeptidase help solution in the screening of the O. anthropi IA and A. nicotianae NCIMB 41126 gene libraries (Examples 3 and 3A).
as §1

NC(=O)C(N)CCCC1OCCO1 (racemic) [DL-2-amino-5-[1,3]dioxolan-2-yl-pentanoic acid amide]
Conversion ([1]; incubation time 0 h): 5.6%
D-Abu ([1]; incubation time 0 h): 0.0 mM
D-Abu amide ([1]; incubation time 0 h): 36.6 mM
L-Abu ([1]; incubation time 0 h): 4.3 mM
L-Abu amide ([1]; incubation time 0 h): 36.5 mM
Conversion ([1]; incubation time 3.6 h): 49.5%
D-Abu ([1]; incubation time 3.6 h): 0.0 mM
D-Abu amide ([1]; incubation time 3.6 h): 35.7 mM
L-Abu ([1]; incubation time 3.6 h): 37.6 mM
L-Abu amide ([1]; incubation time 3.6 h): 2.7 mM
Conversion ([1]; incubation time 22.1 h): 56.6%
D-Abu ([1]; incubation time 22.1 h): 0.1 mM
D-Abu amide ([1]; incubation time 22.1 h): 29.9 mM
L-Abu ([1]; incubation time 22.1 h): 40.3 mM
L-Abu amide ([1]; incubation time 22.1 h): 1.0 mM
Conversion ([1]; incubation time 53.2 h): 61.1%
D-Abu ([1]; incubation time 53.2 h): 0.1 mM
D-Abu amide ([1]; incubation time 53.2 h): 27.4 mM
L-Abu ([1]; incubation time 53.2 h): 43.5 mM
L-Abu amide ([1]; incubation time 53.2 h): 0.1 mM
D-Abu ([1]; incubation time 120.2 h): 0.4 mM
D-Abu amide ([1]; incubation time 120.2 h): 23.7 mM
L-Abu ([1]; incubation time 120.2 h): 46.0 mM
L-Abu amide ([1]; incubation time 120.2 h): 0.1 mM

CCC(N)C(N)=O (racemic) [DL-2-aminobutyric acid (Abu) amide, DL-2-aminobutyric acid amide]
D-Abu ([2]; incubation time 0 h): 0.0 mM
D-Abu amide ([2]; incubation time 0 h): 42.3 mM
L-Abu ([2]; incubation time 0 h): 1.4 mM
L-Abu amide ([2]; incubation time 0 h): 40.5 mM
Conversion ([2]; incubation time 0 h): 1.6%
D-Abu ([2]; incubation time 0.75 h): 0.0 mM
D-Abu amide ([2]; incubation time 0.75 h): 39.6 mM
L-Abu ([2]; incubation time 0.75 h): 12.3 mM
L-Abu amide ([2]; incubation time 0.75 h): 29.3 mM
Conversion ([2]; incubation time 0.75 h): 15.2%
D-Abu ([2]; incubation time 2 h): 0.0 mM
D-Abu amide ([2]; incubation time 2 h): 34.7 mM
L-Abu ([2]; incubation time 2 h): 29.1 mM
L-Abu amide ([2]; incubation time 2 h): 17.8 mM
Conversion ([2]; incubation time 2 h): 35.7%
D-Abu ([2]; incubation time 4.65 h): 0.1 mM
D-Abu amide ([2]; incubation time 4.65 h): 20.8 mM
L-Abu ([2]; incubation time 4.65 h): 52.3 mM
L-Abu amide ([2]; incubation time 4.65 h): 11.5 mM
Conversion ([2]; incubation time 4.65 h): 61.8%
D-Abu ([2]; incubation time 8.25 h): 0.5 mM
D-Abu amide ([2]; incubation time 8.25 h): 12.4 mM
L-Abu ([2]; incubation time 8.25 h): 64.9 mM
L-Abu amide ([2]; incubation time 8.25 h): 8.6 mM
Conversion ([2]; incubation time 8.25 h): 75.1%
D-Abu ([2]; incubation time 21.5 h): 1.4 mM
D-Abu amide ([2]; incubation time 21.5 h): 6.7 mM
L-Abu ([2]; incubation time 21.5 h): 71.7 mM
L-Abu amide ([2]; incubation time 21.5 h): 5.8 mM
Conversion ([2]; incubation time 21.5 h): 83.9%
Conversion ([3]; incubation time 0 h): 0.7%
D-Abu ([3]; incubation time 0 h): 0.0 mM
D-Abu amide ([3]; incubation time 0 h): 36.2 mM
L-Abu ([3]; incubation time 0 h): 0.5 mM
L-Abu amide ([3]; incubation time 0 h): 34.1 mM
Conversion ([3]; incubation time 0.5 h): 17.1%
D-Abu ([3]; incubation time 0.5 h): 0.0 mM
D-Abu amide ([3]; incubation time 0.5 h): 34.6 mM
L-Abu ([3]; incubation time 0.5 h): 11.7 mM
L-Abu amide ([3]; incubation time 0.5 h): 22.2 mM
Conversion ([3]; incubation time 1.0 h): 42.4%
D-Abu ([3]; incubation time 1.0 h): 0.1 mM
D-Abu amide ([3]; incubation time 1.0 h): 36.4 mM
L-Abu ([3]; incubation time 1.0 h): 32.2 mM
L-Abu amide ([3]; incubation time 1.0 h): 7.3 mM
Conversion ([3]; incubation time 1.5 h): 51.9%
D-Abu ([3]; incubation time 1.5 h): 0.0 mM
D-Abu amide ([3]; incubation time 1.5 h): 33.0 mM
L-Abu ([3]; incubation time 1.5 h): 38.5 mM
L-Abu amide ([3]; incubation time 1.5 h): 2.7 mM
Conversion ([3]; incubation time 2.0 h): 56.7%
D-Abu ([3]; incubation time 2.0 h): 0.0 mM
D-Abu amide ([3]; incubation time 2.0 h): 30.4 mM
L-Abu ([3]; incubation time 2.0 h): 41.9 mM
L-Abu amide ([3]; incubation time 2.0 h): 1.7 mM
Conversion ([3]; incubation time 18 h): 97.3%
D-Abu ([3]; incubation time 18 h): 1.6 mM
D-Abu amide ([3]; incubation time 18 h): 0.4 mM
L-Abu ([3]; incubation time 18 h): 70.8 mM
L-Abu amide ([3]; incubation time 18 h): 0.0 mM
